Consider 34 compounds from PubChem BioAssay (NCI).

The assay deals with MDA-MB-468 breast. In words: NCI-60 cell line screen, 48 h.

Molecules are shown by their SMILES.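 Results reflect a 48-hour exposure of cells in 96-well plates to compound at five concentrations. GI50 marks 50% less growth. TGI: concentration producing complete growth inhibition.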 A value given as a limit tells only on which side of the number the result lay.

On to `COc1ccc(-c2cc(/C=C3\C(=O)Nc4ccc(Cl)cc43)[nH]n2)cc1`, for which the GI50 was 3.6 µM and the TGI stood at 13.5 µM.

As to `COc1ccc(/C=C/c2nc(NCCCN(C)C)c3ccccc3n2)cc1`, the GI50 was 1.31 µM and the TGI came out at 2.64 µM.

For `COc1ccc2c(Nc3ccc(NS(C)(=O)=O)cc3)c3ccccc3nc2c1`, the GI50 is 0.414 µM and the TGI amounted to 1.74 µM.

As for `O=c1nc(Nc2cccc(Cl)c2)oc2cc(Cl)oc(=O)c12`, the GI50 was 2.44 µM and the TGI was 6.75 µM.

For the compound `O=C(Nc1ccc(F)cc1)c1c(NC(=O)C(F)(F)F)sc2c1CCCCC2`, the GI50 was 1.04 µM and the TGI stood at 4.85 µM.

As to `OCC1OC(n2ccc3c(NO)ncnc32)C(O)C1O` (stereo not drawn), the GI50 was 0.122 µM and the TGI was 0.777 µM.

Turning to `CC(C)c1ccc(C(=O)Nc2sc3c(c2C#N)CCC(=O)C3)cc1`, the GI50 is 0.389 µM and the TGI is 2.4 µM.

Regarding `NNc1cccc(/C=C/c2ccccc2)cc1=O`, the GI50 was 8.46 µM and the TGI was found to be 90.7 µM.

`Nc1nnc2cc(Cl)ccc2n1`: the GI50 was over 100 µM and the TGI was over 100 µM.

In the case of `COC(=O)c1c2c(c(C)[n+]([O-])c1C)C(=O)C=C(NCc1ccc(F)c(F)c1)C2=O`, the GI50 was 0.242 µM and the TGI is 0.705 µM.

For the compound `N#Cc1cnc2cc(OC[C@@H](O)CO)c(NC(=O)CC3CSSC3)cc2c1Nc1ccc(OCc2cccc(F)c2)c(Cl)c1`, the GI50 is 0.0698 µM and the TGI is 0.155 µM.

For `ClC(Cl)c1nc(-c2cccnc2)n2nc(-c3ccccc3)cc2n1`, the GI50 is 0.247 µM and the TGI worked out at 0.793 µM.

For `COC1CC2C=C(C)/C=C/C=C/C(=O)NC(c3ccccc3)C/C=C/CCC(O)CC(=O)C2=C1O` (stereo not drawn), the GI50 is 0.283 µM and the TGI stood at 1.24 µM.

For the compound `Cn1c(=O)c(Oc2ccccc2F)cc2cnc(NC3CCOCC3)nc21`, the GI50 is over 25 µM and the TGI is over 25 µM.

With `Cc1cc(CNC(=O)OCc2ccccc2)c(C)c2c1Oc1ccccc1O2`, the GI50 was 95.6 µM and the TGI was over 100 µM.

Turning to `O=[N+]([O-])c1ccc(N/N=C/c2c(O)ccc3ccccc23)nc1`, the GI50 is 4.47 µM and the TGI stood at 49.4 µM.

Regarding `Cc1cc(C)c(C[N+](C)(C)C)c(C)c1C`, the GI50 was 0.495 µM and the TGI was found to be 9.2 µM.

On to `O=C(c1ccc2ncc(-c3nc(NC4CC4)ncc3F)n2c1)N1CCOCC1`, for which the GI50 was 1.79 µM and the TGI amounted to 4.34 µM.

As for `NC1CCN(c2nc(Nc3cccc(C(F)(F)F)c3)c3c(=O)[nH]ccc3n2)CC1`, the GI50 was 1.49 µM and the TGI was found to be 2.98 µM.

Regarding `COCCOC(=O)NC(=O)Nc1ccc(/C(=N/O)c2ccc(Cl)cc2)cc1`, the GI50 is 0.0813 µM and the TGI was 0.616 µM.

`Cc1nc2sc(C(=O)Nc3cccc4ccccc34)c(N)c2cc1C(=O)c1ccccc1`: the GI50 is 1.66 µM and the TGI is over 50 µM.

As for `CCOC(=O)C(=Cc1ccccc1[N+](=O)[O-])C(=O)OCC`, the GI50 is 1.53 µM and the TGI worked out at 4.68 µM.

On to `CCN1C(=S)N(CC)C2C1NC(=S)N2/N=C/C=C/c1ccccc1` (stereo not drawn), for which the GI50 was 0.458 µM and the TGI was found to be 4.19 µM.

Regarding `CC(=O)[C@@H]1CCC=C2CC[C@]3(C)[C@@H](CC[C@@H]4[C@@]5(C)CCCNC(C)(C)[C@@H]5CC[C@]43C)[C@H]21`, the GI50 is 1.78 µM and the TGI amounted to 3.43 µM.

Regarding `N=C(N=C(N)N)N1CCN(c2ccncc2)CC1`, the GI50 was over 1000 µM and the TGI was over 1000 µM.

`CC1=C[C@H]2c3c(c(O)c(O)c4oc5ccccc5c(=O)c34)[C@H](c3cc(O)c(O)c4oc5ccccc5c(=O)c34)[C@H]2C(C)(C)C1`: the GI50 was 2.02 µM and the TGI was found to be 6.04 µM.

Consider `Clc1ccc2[nH]cc(-c3nc(-c4c[nH]c5ncccc45)cs3)c2c1`, for which the GI50 is 2.62 µM and the TGI came to 9.41 µM.

Regarding `CCCCCCCCCCN(CCCCCCCCCC)CC(=O)c1ccc2cc(Br)c3ccccc3c2c1`, the GI50 was 1.7 µM and the TGI was 3.14 µM.

On to `NC(=O)c1cc(Br)cc(C2CCCCC2)c1O`, for which the GI50 was 13.8 µM and the TGI came out at 29.2 µM.

For `CN(C)CCCN1c2nc3ccccc3cc2Sc2cc3ccccc3nc21`, the GI50 was 1.65 µM and the TGI worked out at 4.44 µM.

On to `CC/C=C\C[C@H](O)C/C=C1/C(=O)C=C[C@@H]1C/C=C\CCCC(=O)N(C)C`, for which the GI50 is 1.43 µM and the TGI stood at 3.38 µM.

For the compound `COc1cc(/C=C\[N+](=O)[O-])ccc1OCc1ccccc1`, the GI50 was 1.47 µM and the TGI amounted to 3.26 µM.

Regarding `CCOC(=O)c1[nH]c(-c2ccc(Cl)cc2)cc1-c1cccnc1`, the GI50 was 0.493 µM and the TGI amounted to 4.33 µM.

For `C=C1C(=O)O[C@H]2[C@H]1CC/C(COC(=O)NCc1ccc(Cn3c(=O)sn(CCCCl)c3=O)cc1)=C\CC[C@@]1(C)O[C@@H]21`, the GI50 was 1.53 µM and the TGI was 4.33 µM.
